The test concerns the target T1, A disintegrin and metalloproteinase with thrombospondin motifs 5 (Homo sapiens, UniProt Q9UNA0).
T1 sequence (Q9UNA0 whole entry): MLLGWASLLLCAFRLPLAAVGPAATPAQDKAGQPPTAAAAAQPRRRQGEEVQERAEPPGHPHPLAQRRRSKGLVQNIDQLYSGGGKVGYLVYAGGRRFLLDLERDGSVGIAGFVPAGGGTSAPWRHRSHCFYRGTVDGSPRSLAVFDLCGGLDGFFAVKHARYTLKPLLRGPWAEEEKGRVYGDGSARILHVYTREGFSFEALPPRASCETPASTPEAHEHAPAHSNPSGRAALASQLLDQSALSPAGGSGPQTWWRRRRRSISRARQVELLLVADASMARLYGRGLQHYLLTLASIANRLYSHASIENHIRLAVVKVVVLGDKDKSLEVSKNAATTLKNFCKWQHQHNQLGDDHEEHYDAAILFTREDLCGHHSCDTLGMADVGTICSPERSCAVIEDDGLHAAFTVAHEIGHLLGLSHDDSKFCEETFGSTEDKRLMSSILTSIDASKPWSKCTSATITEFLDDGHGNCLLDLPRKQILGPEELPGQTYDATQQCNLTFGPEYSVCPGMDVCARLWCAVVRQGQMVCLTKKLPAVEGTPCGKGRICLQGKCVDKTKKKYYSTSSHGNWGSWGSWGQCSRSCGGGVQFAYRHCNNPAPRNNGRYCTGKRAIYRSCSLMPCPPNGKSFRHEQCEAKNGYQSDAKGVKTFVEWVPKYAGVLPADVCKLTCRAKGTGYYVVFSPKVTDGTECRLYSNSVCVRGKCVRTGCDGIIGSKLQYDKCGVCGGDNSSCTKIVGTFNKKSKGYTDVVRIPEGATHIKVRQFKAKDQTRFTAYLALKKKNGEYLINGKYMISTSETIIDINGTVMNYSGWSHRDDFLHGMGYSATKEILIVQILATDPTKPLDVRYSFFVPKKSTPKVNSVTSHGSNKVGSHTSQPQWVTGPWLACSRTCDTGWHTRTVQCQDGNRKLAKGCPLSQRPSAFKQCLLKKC
As to the kind of experiment: Inhibition of ADAMTS5.

One may read the IC50 as the point on the concentration scale where inhibition reaches its midpoint. `O=C(O)CN1C(=O)/C(=C\c2ccc(OCc3ccccc3)c(OCc3ccccc3)c2)SC1=S` yielded an IC50 of 6.7 µM.

`O=C1NC(=S)S/C1=C/c1cccc(Oc2ccc(Cl)cc2)c1` came in with an IC50 of 4.9 µM.

As for `COc1ccc(COc2ccc(/C=C3/SC(=S)NC3=O)cc2OC)cc1`, the IC50 came to 11.6 µM.

Take `CC(C)[C@H](C(=O)O)N1C(=O)/C(=C\c2cccc(Oc3ccc(Cl)c(Cl)c3)c2)SC1=S`: the midpoint of inhibition, the IC50, lay at 1.8 µM.

In turn, `O=C(O)C(c1ccccc1)N1C(=O)/C(=C\c2ccc(OCc3ccccc3)c(OCc3ccccc3)c2)SC1=S` (stereo unspecified) came in with an IC50 of 0.9 µM.

`O=C(O)CN1C(=O)/C(=C\c2cccc(Oc3ccc(Cl)c(Cl)c3)c2)SC1=S`: it took 11.1 µM to reach half-maximal inhibition (IC50).

For the compound `COc1cc(/C=C2/SC(=S)NC2=O)ccc1OCc1ccccc1`, the IC50 is over 22 µM.

Regarding `O=C1NC(=S)S/C1=C/c1cccc(Oc2ccccc2)c1`, the IC50 was over 22 µM.

`O=C1NC(=S)S/C1=C/c1cccc(Oc2cc(Cl)cc(Cl)c2)c1`: 2.5 µM corresponded to half-maximal inhibition (IC50).

Take `O=C1NC(=S)S/C1=C/c1cccc(Oc2ccc(C(F)(F)F)cc2)c1`: the midpoint of inhibition, the IC50, lay at 5.3 µM.

Compound `CC(C)(C)c1ccc(Oc2cccc(/C=C3/SC(=O)NC3=O)c2)cc1` showed an IC50 of 6.8 µM.

As for `O=C1NC(=S)S/C1=C/c1ccc(OCc2ccccc2)c(OCc2ccccc2)c1`, the IC50 came out at 1.8 µM.

`O=C(O)[C@@H](Cc1ccccc1)N1C(=O)/C(=C\c2cccc(Oc3ccc(Cl)c(Cl)c3)c2)SC1=S` registered a half-maximal inhibitory concentration (IC50) of 1.6 µM. The IC50 values of the last two compounds are within 1.5-fold of each other.

The compound `O=C(O)CCN1C(=O)/C(=C\c2ccc(OCc3ccccc3)c(OCc3ccccc3)c2)SC1=S` gave an IC50 of 5.3 µM.

Compound `O=C1NC(=O)/C(=C\c2cccc(Oc3ccc(Cl)c(Cl)c3)c2)S1` showed an IC50 of 10 µM.

Turning to `O=C1NC(=O)/C(=C\c2cccc(Oc3ccc(Cl)cc3)c2)N1`, the IC50 is over 67 µM.

With `O=C1NC(=O)/C(=C\c2cccc(Oc3ccc(Cl)cc3)c2)S1`, the IC50 is over 22 µM.

In turn, `CN1C(=O)/C(=C\c2ccc(OCc3ccccc3)c(OCc3ccccc3)c2)SC1=S` yielded an IC50 of over 67 µM.

`O=C1/C(=C\c2ccc(OCc3ccccc3)c(OCc3ccccc3)c2)SC(=S)N1c1ccccc1` came in with an IC50 of over 67 µM.

For the compound `CC(C)[C@H](C(=O)O)N1C(=O)/C(=C\c2ccc(OCc3ccccc3)c(OCc3ccccc3)c2)SC1=S`, half-maximal inhibition (IC50) required 1.1 µM.

The compound `CCN1C(=O)/C(=C\c2ccc(OCc3ccccc3)c(OCc3ccccc3)c2)SC1=S` registered an IC50 of over 67 µM.

Consider `O=C1NC(=O)/C(=C\c2cccc(Oc3cc(Cl)cc(Cl)c3)c2)N1`, for which the IC50 was over 67 µM.

As for `Cc1ccc(Oc2cccc(/C=C3/SC(=S)NC3=O)c2)cc1`, the IC50 was found to be 14.8 µM. This lies in the double-digit micromolar range.

The compound `COc1cc(/C=C2/SC(=S)NC2=O)ccc1OCc1ccc(Cl)cc1` yielded a concentration for half-maximal inhibition (IC50) of 3.5 µM. Compared with the last compound, the IC50 is about 4.2-fold lower.

For `O=C(O)[C@@H](Cc1ccccc1)N1C(=O)/C(=C\c2ccc(OCc3ccccc3)c(OCc3ccccc3)c2)SC1=S`, the 50% inhibitory concentration (IC50) came out at 1.3 µM.

The compound `O=C1/C(=C\c2ccc(OCc3ccccc3)c(OCc3ccccc3)c2)SC(=S)N1Cc1ccccc1` showed an IC50 of over 67 µM.

`CC(C)(C)c1ccc(Oc2cccc(/C=C3/NC(=O)NC3=O)c2)cc1`: the IC50 was over 67 µM.

In the case of `O=C1NC(=S)S/C1=C/c1cccc(Oc2ccc(Cl)c(Cl)c2)c1`, inhibition was half-maximal at 3.2 µM (IC50).

In turn, `O=C1NC(=S)S/C1=C/c1cc(OCc2ccccc2)cc(OCc2ccccc2)c1` returned an IC50 of 1.4 µM.

Turning to `COc1ccc(Oc2cccc(/C=C3/SC(=S)NC3=O)c2)cc1`, the IC50 was determined as 16.2 µM.

Consider `CC(C)(C)c1ccc(Oc2cccc(/C=C3/SC(=S)NC3=O)c2)cc1`, for which 1.7 µM corresponded to half-maximal inhibition (IC50).

In turn, `O=C1/C(=C\c2ccc(OCc3ccccc3)c(OCc3ccccc3)c2)SC(=S)N1CCc1ccccc1` yielded an IC50 of over 67 µM.

For the compound `CN1C(=O)NC(=O)/C1=C\c1cccc(Oc2ccc(Cl)cc2)c1`, the concentration for half-maximal inhibition (IC50) was over 22 µM.

For `O=C1NC(=S)S/C1=C/c1cccc(OCc2ccccc2)c1`, the IC50 was 20.1 µM.

In turn, `O=C(O)C(c1ccccc1)N1C(=O)/C(=C\c2cccc(Oc3ccc(Cl)c(Cl)c3)c2)SC1=S` (stereo unspecified) registered an IC50 of 1.3 µM.

`O=C1NC(=O)/C(=C\c2cccc(Oc3cc(Cl)cc(Cl)c3)c2)S1` returned an IC50 of 9.2 µM.
